# Experiments:
# [1] = system: subjects presenting with parasomnia; assay: Case studies of subjects treated with L-tryptophan for parasomnia; format: in vivo, human
# Experimental: A detailed analysis of a number of subjects presenting with parasomnia who were treated with L-tryptophan was performed. A selection of case reports of subjects treated with L-tryptophan are summarized below. Remarkably, L-tryptophan is useful for the treatment of subjects presenting with a variety of abnormal behavioral or physiological events occurring in association with sleep, specific sleep stages, or sleep-wake transition.
# mild insomnia = conditions: lower doses (<4 g), without altering sleep architecture; cited from earlier work
# subjects with parasomnia = assay: Retrospective study of subjects with parasomnia (follow-up questionnaire and phone interview); format: in vivo, human
# Experimental: A retrospective study was performed to evaluate the effects of L-tryoptophan on subjects with parasomnia and to look for sleep architectural differences in children before and after treatment.
# Confidential charts were selected of boys and girls between the ages of 3 and 18 years with a clinical diagnosis of Parasomnias, and including behaviours of sleep walking, sleep talking, nightmares or night-terrors.
# The 165 subjects that were included in the retrospective study of confidential charts were prescribed treatment with L-Tryptophan or Clonazepam, or no treatment. The exclusion criteria were children under the age 3 years or over the age 18 years and those undergoing treatment for Parasomnia at the time of the sleep study.
# The diagnosis of parasomnia was made by a sleep physician and based on the clinical history together with confirmation from the polysomnographic sleep study findings.
# An overnight polysomnographic sleep study and questionnaire data were collected during this study for each subject. Each of the subjects at the sleep clinic responded to a battery of questionnaires consisting of: Pediatric Daytime Sleepiness Scale (PDSS), THAT alertness scale, SNAP assessment for ADHD symptoms, Centre for Epidemiologic Studies in depression scale modified for children (CES-DC), and SCARED anxiety scale.
# A follow-up questionnaire was formulated to assess for their symptoms following treatment with Tryptophan to compare values before and after treatment. A follow-up phone interview was conducted to assess the frequency of Parasomnias during and after treatment. The follow-up questionnaire included: daytime sleepiness, level of attention and concentration, ability to wake up in the morning, number of hours of sleep at night and incidence of temper tantrums.
# Ninety nine (60%) of the 165 children were prescribed L-tryptophan to manage their parasomnia. The remaining were either prescribed Clonazepam (n=32) or were not prescribed anything. The latter reflected parental preference and/or clinical judgement.
# [2] = Case A, current dose of 1.75 mg
# [3] = Case B, 3 g one hour before bedtime
# [4] = children treated with L-tryptophan
# [5] = out of 69 patients who took L-Tryptophan
# [6] = patients aged 3-18 years who took L-Tryptophan (n=69)
# [7] = patients who took L-Tryptophan (n=69)
# [8] = subjects administered L-tryptophan
smiles,measurement,setting,value
"N[C@@H](Cc1c[nH]c2ccccc12)C(=O)O [L-tryptophan, (2S)-2-amino-3-(1H-indol-3-yl)propanoic acid]",daytime fatigue,[1]; [2],less problematic
same,nightly sleep talking,[1]; [2],ceased
same,patient's sleep,[1]; [2],improved
same,time to fall asleep after retiring to bed,[1]; [2],15 to 20 min
same,daytime somnolence or fatigue,[1]; [3],no observation of daytime somnolence or fatigue
same,night terrors,[1]; [3],no night terrors
same,nightly bedwetting / enuretic episodes,[1]; [3],still continues to experience nightly enuretic episodes
same,tolerability,"[1]; Case B, six capsules (3 g) one hour before bedtime",able to tolerate
same,daytime endurance,"[1]; Case C, dosage of 2 mg",improved significantly
same,sleepwalking,"[1]; Case C, dosage of 2 mg",No observed parasomnic behaviours of sleepwalking
same,subject's sleep,"[1]; Case C, dosage of 2 mg",marked improvement
same,bruxism,"[1]; Case D, 2 g daily",declined significantly
same,sleepwalking,"[1]; Case D, 2 g daily",no episodes of sleep walking
same,frequency of bedwetting,"[1]; Case E, 4.5 g daily",declined substantially
same,sleepwalking and sleep talking,"[1]; Case E, 4.5 g daily",no longer walked or talked in their sleep
same,sleep overall,"[1]; Case F, dose of 2.25 mg daily",improved noticeably
same,tolerability,"[1]; Case F, dose of 2.25 mg daily",tolerated L-tryptophan well
same,decrease in sleep latency,mild insomnia,about half
same,frequency of parasomnic events,subjects with parasomnia; [4],reduced
same,number of arousals in sleep,subjects with parasomnia; [4],decreasing
same,"side effects observed, number of patients",subjects with parasomnia; [5],7
same,"side effects observed, percent of patients",subjects with parasomnia; [5],10%
same,"improvement in parasomnia symptoms (B or R), number of patients",subjects with parasomnia; [6],55
same,"improvement in parasomnia symptoms (B or R), percent of patients",subjects with parasomnia; [6],80%
same,"no change in parasomnia symptoms (U), number of patients",subjects with parasomnia; [7],10
same,"no change in parasomnia symptoms (U), percent of patients",subjects with parasomnia; [7],14%
same,"worsening of parasomnia symptoms (W), number of patients",subjects with parasomnia; [7],4
same,"worsening of parasomnia symptoms (W), percent of patients",subjects with parasomnia; [7],6%
same,alertness during the day,subjects with parasomnia; [8],increased
same,attention during the day,subjects with parasomnia; [8],better
same,number of temper tantrums,subjects with parasomnia; [8],reduced

# Reference: US9895353B2, “Use of L-tryptophan for the treatment of parasomnias” (Zzeemag Inc., priority 2013, dated 2018)
